Measurements: article PMC4519872, “Characterization of the Interaction between Gallic Acid and Lysozyme by Molecular Dynamics Simulation and Optical Spectroscopy” (International Journal of Molecular Sciences, 2015)

Target: T1, lysozyme (LYS) (Gallus gallus, UniProt P00698)
T1 construct: gene LYZ; commercial lysozyme, Sigma-Aldrich, >=18,000 U; single chain of 129 residues; docking model PDB 1GWD
Experiment: intrinsic fluorescence quenching titration
Format: binding
Details: 298 K; Tris-HCl pH 7.43; excitation 282 nm; inner-filter corrected; double-log
Excerpt: intrinsic fluorescence quenching titration on lysozyme (LYS)

T1 sequence (P00698 19-147): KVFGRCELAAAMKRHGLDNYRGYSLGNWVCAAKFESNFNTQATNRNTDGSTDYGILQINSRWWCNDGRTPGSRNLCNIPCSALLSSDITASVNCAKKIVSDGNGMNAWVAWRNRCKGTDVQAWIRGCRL

K: 393000 L/mol
Compound: O=C(O)c1cc(O)c(O)c(O)c1 [GA, 3,4,5-trihydroxybenzoic acid]
